“Also recorded” adds a separate entry of the source. No end group written: not given here.
Tested on: human insulin autoantibodies
Experiment: Competition with 125I-human insulin for binding to human insulin autoantibodies (competitive binding radioassay)
Settings: for affinity / recognition by human insulin autoantibodies: Type I diabetes-associated autoantibodies, relative to human insulin
Method: Insulin autoantibodies isolated from sera of well-characterized first-degree relatives of patients with Type I diabetes mellitus were analyzed in comparative studies by competition with a series of insulins from different species and with insulin analogues. Insulin binding activity was detected using a competitive binding radioassay and expressed in nU of insulin precipitated per ml of sera (1 nU/ml=7.18 fmole/L).

Substance	affinity / recognition by human insulin autoantibodies	competition with 125I-human insulin for binding to human insulin autoantibodies (autoantibodies isolated from sera of first-degree relatives of Type I diabetes patients)	potency in binding to insulin autoantibodies relative to human insulin
Guinea pig insulin: guinea pig insulin; differs from human insulin at 18 positions (Insulin B chain FVSRHLCGSNLVETLYSVCQDDGFFYIPKD; Insulin A chain GIVDQCCTGTCTRHQLQSYCN; ends and bridges not checked; cysteine pairing not given here; UniProt P01329 25-54; P01329 90-110, looked up)	essentially not recognized; also recorded: reduced	failed to compete	–
human proinsulin	–	–	at least as potent as human insulin
ovine insulins: ovine insulin; differs from human by three amino acids	high-affinity recognition; also recorded: minimal reduction	–	–

— US5422339A, “Peptides having insulin autoantibody but not insulin receptor binding capacity” (Joslin Diabetes Center, Inc., priority 1994, dated 1995)
